Key:
N2a cells = assay: Protection against hydrogen peroxide-induced cell death, N2a; assay type: cell-based, mouse; details: compound 40 μM; hydrogen peroxide 200 μM
Procedure: Protection against Hydrogen Peroxide-induced Cell-death. N2a cells grown in 96-well plates were exposed to a test compound (40 μM) for 2 hrs before addition of hydrogen peroxide (200 μM). After 40 min of incubation with hydrogen peroxide, ALAMARBLUE® regent (10% v/v) was added to the wells. Fluorescence reading was taken 2 hrs after the addition of the ALAMARBLUE® regent. Cell-viability was calculated as a percentage of relative fluorescence unit (RFU) compared to control.
The results are summarized in Table 2, where A represents a value greater than 50% cell rescue, B represents a value between 10% to 50% cell rescue, C represents a value between 1% to 10% cell rescue, and D represents a value no greater than 1% cell rescue.

CSM14.1 cells = assay: ER stress cell survival assay (thapsigargin); assay type: cell-based; details: compound 2 μM; about 15 μM thapsigargin; CSM14.1 cells;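 note: survival read as CellTiter-Glo luminescence after overnight incubation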
Procedure: ER Stress Cell Survival Assay
CSM14.1 cells were maintained in Complete Medium at 32° C.; wherein the Complete Medium contained Dulbecco's modified eagle medium (DMEM) with 10% fetal bovine serum (FSB), 1% L-glutamine, 100 IU/mL penicillin, and 100 μg/mL streptomycin. The cells were recovered from cultures by trypsinization and then seeded in 384 well plates (Greiner #781098) at a concentration of 1,000 cells/well in 20 μL of DMEM Assay Medium, wherein the DMEM Assay Medium contained 2% FBS, 100 IU/mL penicillin, and 100 μg/mL streptomycin. Seeding was performed using a MultiDrop Combi reagent broadcaster. The plates were incubated overnight at 32° C.
A test compound was prepared by 2-fold serial dilution in 100% DMSO using a BIOMEK® 2000 liquid handler (Beckman Coulter). A dose-response curve containing 10 concentrations of the test compound was obtained. Using a BIOMEK® FX liquid handler (Beckman Coulter), 2.5 μL of the test compound was transferred from the 100% DMSO serial dilution plate to an intermediate plate containing 47.5 μL of DMEM Assay Medium containing 2% FBS, 100 IU/mL penicillin, and 100 μg/mL streptomycin and mixed. To reduce or eliminate the interference from the compound's precipitation, 6 μL of the diluted compound was immediately transferred to the assay plate to achieve a high compound concentration of 100 μM in 99% DMEM Assay Medium and 1% DMSO. After the assay plates were incubated for 2 hrs, 4 μL of 112.5 μM thapsigargin (TG) (DMSO stock diluted into Assay TC Medium) was dispensed into each testing well with a MultiDrop Combi reagent broadcaster for a final concentration of about 15 μM TG. The tissue culture media (4 μL) containing vehicle only was transferred manually to each control cell using a 16 channel electronic pipette. […] High luminescence indicates cell survival.
Alternatively, a test compound was tested at a single compound concentration (e.g., 2 μM) to determine the effect of the compound on cell survival in comparison with vehicle.

[1] = Pharmacokinetics in CD-1 mice; assay type: in vivo, mouse; details: CD-1 mice
Procedure: Pharmacokinetics of test compounds were assessed in CD-1 mice. The compounds were formulated at 1 mg/mL in DMSO/Tween 80/water (10/10/80, vol/vol/vol) and dosed at 2 mg/kg intravenous (i.v.) or 10 mg/kg by oral gavage (P.O.) in triplicate. Blood was drawn at 0.25 h, 0.5 h, 1 hr, 2 hrs, 4 hrs, 8 hrs, and 24 hrs into EDTA containing tubes and plasma was harvested by centrifugation. Plasma (10 μL) containing 50% acetonitrile in water (5 μL) was added to 200 μL of ACN containing an internal standard. The samples were vortexed for 30 s. After centrifugation at […] and 4,000 rpm for 15 min, the supernatant was diluted 3 times with water. Then, 20 μL of diluted supernatant was injected into the LC/MS/MS system for quantitative analysis. The samples were injected onto an Agilent ZORBAX XDB-Phenyl 5μ column (50×2.10 mm). Mobile Phase A was water with 0.1% formic acid. Mobile Phase B was acetonitrile with 0.1% formic acid. Separation was achieved using a gradient of 70% A/30% B to 0% A/100% B over 2.10 min. A Shimadzu LCMS-8050 equipped with a turbo ion spray source was used for all analytical measurements. A positive ion MRM method was developed. Peak areas of the product ion were measured against the peak areas of the internal standard. Data was fit using WinNonLin (Pharsight Corporation, Mountain View, CA).

[2] = mouse, plasma, 2 mg/kg i.v. or 10 mg/kg P.O.

SMILES | N2a Cells (H2O2-induced) cell rescue (N2a cells) | Cell Survival (CSM14.1 cells) | further results
O=C(Nc1cccc2cccnc12)c1cc(Br)cs1 [Compound H9, 4-Bromo-N-(quinolin-8-yl)thiophene-2-carboxamide] | A (A represents a value greater than 50% cell rescue) | – | –
CCOc1ccc(C(=O)Nc2cccc3ccc(C)nc23)cc1 [Compound C13, 4-Ethoxy-N-(2-methylquinolin-8-yl)benzamide] | – | D (D represents a value no greater than 1%) | –
O=C(Nc1cccc2cccnc12)c1ccc([N+](=O)[O-])s1 [Compound H8, 5-Nitro-N-(quinolin-8-yl)thiophene-2-carboxamide] | B (B represents a value between 10% to 50% cell rescue) | – | –
Cc1ccc2cccc(NC(=O)c3cccc(Cl)c3)c2n1 [Compound C15, 3-Chloro-N-(2-methylquinolin-8-yl)benzamide] | – | D (D represents a value no greater than 1%) | –
Cc1ccc2cccc(NC(=O)c3ccc(Cl)cc3)c2n1 [Compound C17, 4-Chloro-N-(2-methylquinolin-8-yl)benzamide] | – | D (D represents a value no greater than 1%) | –
Cc1ccc2cccc(NC(=O)c3cc(Br)cs3)c2n1 [Compound G8, 4-Bromo-N-(2-methylquinolin-8-yl)thiophene-2-carboxamide] | – | – | F ([1]; 10 mg/kg P.O. vs 2 mg/kg i.v.): 0.12%; AUC [1, 2]: 0.78 ng·h/mL; Cmax [1, 2]: 10 nM; half-life [1, 2]: 36 min
Cc1ccc(C(=O)Nc2cccc3cccnc23)s1 [Compound H3, 5-Methyl-N-(quinolin-8-yl)thiophene-2-carboxamide] | A (A represents a value greater than 50% cell rescue) | – | –
Cc1ccc2cccc(NC(=O)c3sccc3C)c2n1 [Compound G3, 3-Methyl-N-(2-methylquinolin-8-yl)thiophene-2-carboxamide] | B (B represents a value between 10% to 50% cell rescue) | – | –
Cc1ccc2cccc(NC(=O)c3cccc([N+](=O)[O-])c3)c2n1 [Compound C7, 3-Nitro-N-(2-methylquinolin-8-yl)benzamide] | – | C (C represents a value between 1% and 10%) | –
Cc1ccc2cccc(NC(=O)c3ccc(OC(F)(F)F)cc3)c2n1 [Compound C11, 4-Trifluoromethoxy-N-(2-methylquinolin-8-yl)benzamide] | – | D (D represents a value no greater than 1%) | –
Cc1ccc2cccc(NC(=O)c3cccc(Br)c3)c2n1 [Compound C16, 3-Bromo-N-(2-methylquinolin-8-yl)benzamide] | – | D (D represents a value no greater than 1%) | –
Cc1ccc2cccc(NC(=O)c3ccccc3[N+](=O)[O-])c2n1 [Compound C3, 2-Nitro-N-(2-methylquinolin-8-yl)benzamide] | – | B (B represents a value between 10% and 50%) | –
Cc1ccc2cccc(NC(=O)c3cccc(OC(F)(F)F)c3)c2n1 [Compound C4, 3-Trifluoromethoxy-N-(2-methylquinolin-8-yl)benzamide] | – | B (B represents a value between 10% and 50%) | –
Cc1ccc2cccc(NC(=O)c3ccc(Cl)s3)c2n1 [Compound G4, 5-Chloro-N-(2_methylquinolin-8-yl)thiophene-2-carboxamide] | B (B represents a value between 10% to 50% cell rescue) | – | –
O=C(Nc1cccc2cccnc12)c1ccc(Br)s1 [Compound H1, 5-Bromo-N-(quinolin-8-yl)thiophene-2-carboxamide] | B (B represents a value between 10% to 50% cell rescue) | – | –
O=C(Nc1cccc2cccnc12)c1sc(Br)cc1Br [Compound H10, 3,5-Dibromo-N-(quinolin-8-yl)thiophene-2-carboxamide] | B (B represents a value between 10% to 50% cell rescue) | – | –

SMILES | N2a Cells (H2O2-induced) cell rescue (N2a cells) | Cell Survival (CSM14.1 cells) | further results
O=C(Nc1cccc2cccnc12)c1cc2ccccc2o1 [Compound H7, N-(Quinolin-8-yl)benzofuran-2-carboxamide] | B (B represents a value between 10% to 50% cell rescue) | – | –
Cc1ccc2cccc(NC(=O)c3ccc(SC(C)C)cc3)c2n1 [Compound C21, 4-(Isopropylthio)-N-(2-methylquinolin-8-yl)benzamide] | – | C (C represents a value between 1% and 10%) | –
O=C(Nc1cccc2cccnc12)c1ccc(Cl)s1 [Compound H5, 5-Chloro-N-(quinolin-8-yl)thiophene-2-carboxamide] | B (B represents a value between 10% to 50% cell rescue) | – | –
O=C(Nc1cccc2cccnc12)c1cc(Br)c(Br)s1 [Compound H11, 4,5-Dibromo-N-(quinolin-8-yl)thiophene-2-carboxamide] | A (A represents a value greater than 50% cell rescue) | – | –
Cc1ccsc1C(=O)Nc1cccc2cccnc12 [Compound H4, 3-Methyl-N-(quinolin-8-yl)thiophene-2-carboxamide] | A (A represents a value greater than 50% cell rescue) | – | –
Cc1ccc2cccc(NC(=O)c3ccc(F)cc3)c2n1 [Compound C14, 4-Fluoro-N-(2-methylquinolin-8-yl)benzamide] | – | D (D represents a value no greater than 1%) | –
Cc1ccc2cccc(NC(=O)c3ccc([N+](=O)[O-])cc3)c2n1 [Compound C8, 4-Nitro-N-(2-methylquinolin-8-yl)benzamide] | – | D (D represents a value no greater than 1%) | –
Cc1ccc2cccc(NC(=O)c3cccc(C(F)(F)F)c3)c2n1 [Compound C12, 3-Trifluoromethyl-N-(2-methylquinolin-8-yl)benzamide] | – | D (D represents a value no greater than 1%) | –
Cc1ccc2cccc(NC(=O)c3ccc(Br)cc3)c2n1 [Compound C1, 4-Bromo-N-(2-methylquinolin-8-yl)benzamide] | – | A (A represents a value greater than 50%) | –
CCSc1ccc(C(=O)Nc2cccc3ccc(C)nc23)cc1 [Compound C22, 4-(Ethylthio)-N-(2-methylquinolin-8-yl)benzamide] | – | D (D represents a value no greater than 1%) | –
Cc1ccc2cccc(NC(=O)c3ccccc3Cl)c2n1 [Compound C9, 2-Chloro-N-(2-methylquinolin-8-yl)benzamide] | – | D (D represents a value no greater than 1%) | –
CC(=O)c1ccc(C(=O)Nc2cccc3ccc(C)nc23)s1 [Compound G5, 5-Acetyl-N-(2-methylquinolin-8-yl)thiophene-2-carboxamide] | B (B represents a value between 10% to 50% cell rescue) | – | –
Cc1ccc2cccc(NC(=O)c3ccccc3F)c2n1 [Compound C2, 2-Fluoro-N-(2-methylquinolin-8-yl)benzamide] | – | A (A represents a value greater than 50%) | –
CC(=O)c1ccc(C(=O)Nc2cccc3cccnc23)s1 [Compound H6, 5-Acetyl-N-(quinolin-8-yl)thiophene-2-carboxamide] | B (B represents a value between 10% to 50% cell rescue) | – | –
Cc1ccc2cccc(NC(=O)c3cccs3)c2n1 [Compound G1, N-(2-Methylquinolin-8-yl)thiophene-2-carboxamide] | B (B represents a value between 10% to 50% cell rescue) | – | –
O=C(Nc1cccc2cccnc12)c1cccs1 [Compound H2, N-(quinolin-8-yl)thiophene-2-carboxamide] | B (B represents a value between 10% to 50% cell rescue) | – | –

From US11890279B2, “Quinolines that modulate SERCA and their use for treating disease” (Neurodon Corporation, priority 2020, dated 2024)
